We go through 13 compounds from the kinase profiling compilation of Christmann-Franck et al. (2016).

Some targets named below: LTK (human) (UniProt P29376); PAK7 (human) (UniProt Q9P286); CSK (human) (UniProt P41240); CAMK1G (human) (UniProt Q96NX5); MAPK9 (human) (UniProt P45984); CDC42BPB (human) (UniProt Q9Y5S2); CAMK2A (human) (UniProt Q9UQM7); PKN2 (human) (UniProt Q16513); PRKCD (human) (UniProt Q05655); FES (human) (UniProt P07332); WEE1 (human) (UniProt P30291); IKBKB (human) (UniProt O14920); PRKG1 (human) (UniProt Q13976); ABL1 (human) (UniProt P00519); ADCK3 (human) (UniProt Q8NI60); SRPK1 (human) (UniProt Q96SB4); ABL2 (human) (UniProt P42684); MAP4K5 (human) (UniProt Q9Y4K4); MAP4K1 (human) (UniProt Q92918); DDR1 (human) (UniProt Q08345); FGFR1 (human) (UniProt P11362); SLK (human) (UniProt Q9H2G2); ULK1 (human) (UniProt O75385); STK32B (human) (UniProt Q9NY57); EPHB1 (human) (UniProt P54762); RPS6KA6 KD1 (human) (UniProt Q9UK32); PRKCE (human) (UniProt Q02156); MAPK13 (human) (UniProt O15264); PAK3 (human) (UniProt O75914); BMX (human) (UniProt P51813); RPS6KA3 KD1 (human) (UniProt P51812); MUSK (human) (UniProt O15146); NTRK1 (human) (UniProt P04629); CAMK4 (human) (UniProt Q16566); AKT3 (human) (UniProt Q9Y243); PTK2B (human) (UniProt Q14289); EPHA4 (human) (UniProt P54764); NUAK2 (human) (UniProt Q9H093); CDKL2 (human) (UniProt Q92772).

Common to all, as to test: KINOMEscan competition binding
Holding throughout (conditions): compound 10.0 µM

Assay [1] concerns the target JAK1 JH1 catalytic (human) (UniProt P23458).
Assay [2] deals with EGFR (human), P00533 [L858R].
The subject of assay [3] is ABL1 (human), P00519 [F317I].

Sequence of CDC42BPB (human) (Q9Y5S2 whole entry, looked up): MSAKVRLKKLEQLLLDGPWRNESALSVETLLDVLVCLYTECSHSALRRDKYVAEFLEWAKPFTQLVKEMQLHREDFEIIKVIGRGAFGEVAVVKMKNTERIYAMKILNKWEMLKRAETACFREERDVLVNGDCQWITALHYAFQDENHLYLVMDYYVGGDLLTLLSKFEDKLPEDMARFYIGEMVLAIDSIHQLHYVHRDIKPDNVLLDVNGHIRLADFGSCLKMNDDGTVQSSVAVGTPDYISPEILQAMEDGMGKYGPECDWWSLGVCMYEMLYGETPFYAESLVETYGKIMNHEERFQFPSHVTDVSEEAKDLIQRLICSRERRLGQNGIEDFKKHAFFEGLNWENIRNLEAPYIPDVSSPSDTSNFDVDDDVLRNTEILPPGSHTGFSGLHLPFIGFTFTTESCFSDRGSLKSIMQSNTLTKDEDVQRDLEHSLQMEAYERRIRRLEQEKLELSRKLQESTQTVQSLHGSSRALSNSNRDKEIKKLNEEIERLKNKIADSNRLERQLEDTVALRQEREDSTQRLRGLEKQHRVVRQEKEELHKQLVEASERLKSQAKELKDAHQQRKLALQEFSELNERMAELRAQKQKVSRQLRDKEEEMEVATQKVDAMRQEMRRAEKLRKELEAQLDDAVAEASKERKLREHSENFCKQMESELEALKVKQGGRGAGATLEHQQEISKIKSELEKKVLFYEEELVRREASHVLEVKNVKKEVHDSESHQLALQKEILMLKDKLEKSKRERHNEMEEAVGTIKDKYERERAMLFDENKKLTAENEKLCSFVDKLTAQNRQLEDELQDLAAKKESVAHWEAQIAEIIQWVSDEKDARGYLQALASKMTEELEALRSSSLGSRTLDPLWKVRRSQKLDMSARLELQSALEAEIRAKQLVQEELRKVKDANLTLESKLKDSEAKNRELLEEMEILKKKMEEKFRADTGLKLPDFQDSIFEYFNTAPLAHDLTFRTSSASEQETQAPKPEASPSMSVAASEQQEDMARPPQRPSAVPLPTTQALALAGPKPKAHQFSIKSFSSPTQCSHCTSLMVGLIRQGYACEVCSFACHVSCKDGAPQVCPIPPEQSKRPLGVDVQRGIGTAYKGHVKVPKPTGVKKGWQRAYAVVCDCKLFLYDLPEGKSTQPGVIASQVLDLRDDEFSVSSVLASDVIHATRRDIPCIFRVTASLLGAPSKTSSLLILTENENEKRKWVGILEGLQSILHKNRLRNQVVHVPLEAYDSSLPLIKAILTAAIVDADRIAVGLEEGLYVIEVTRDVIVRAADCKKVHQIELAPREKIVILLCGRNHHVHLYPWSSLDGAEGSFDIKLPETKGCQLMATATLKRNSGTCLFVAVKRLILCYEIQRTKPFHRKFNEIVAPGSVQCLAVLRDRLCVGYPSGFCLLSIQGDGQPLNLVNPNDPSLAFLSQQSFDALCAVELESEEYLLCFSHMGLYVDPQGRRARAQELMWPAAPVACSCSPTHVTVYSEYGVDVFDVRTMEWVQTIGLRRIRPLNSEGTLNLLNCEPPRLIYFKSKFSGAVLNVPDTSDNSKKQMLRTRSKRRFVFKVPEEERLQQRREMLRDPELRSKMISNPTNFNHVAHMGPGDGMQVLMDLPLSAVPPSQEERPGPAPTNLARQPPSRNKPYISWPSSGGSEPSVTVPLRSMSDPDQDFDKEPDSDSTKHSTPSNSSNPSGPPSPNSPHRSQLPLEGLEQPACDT
Sequence of NUAK2 (human) (Q9H093 whole entry, looked up): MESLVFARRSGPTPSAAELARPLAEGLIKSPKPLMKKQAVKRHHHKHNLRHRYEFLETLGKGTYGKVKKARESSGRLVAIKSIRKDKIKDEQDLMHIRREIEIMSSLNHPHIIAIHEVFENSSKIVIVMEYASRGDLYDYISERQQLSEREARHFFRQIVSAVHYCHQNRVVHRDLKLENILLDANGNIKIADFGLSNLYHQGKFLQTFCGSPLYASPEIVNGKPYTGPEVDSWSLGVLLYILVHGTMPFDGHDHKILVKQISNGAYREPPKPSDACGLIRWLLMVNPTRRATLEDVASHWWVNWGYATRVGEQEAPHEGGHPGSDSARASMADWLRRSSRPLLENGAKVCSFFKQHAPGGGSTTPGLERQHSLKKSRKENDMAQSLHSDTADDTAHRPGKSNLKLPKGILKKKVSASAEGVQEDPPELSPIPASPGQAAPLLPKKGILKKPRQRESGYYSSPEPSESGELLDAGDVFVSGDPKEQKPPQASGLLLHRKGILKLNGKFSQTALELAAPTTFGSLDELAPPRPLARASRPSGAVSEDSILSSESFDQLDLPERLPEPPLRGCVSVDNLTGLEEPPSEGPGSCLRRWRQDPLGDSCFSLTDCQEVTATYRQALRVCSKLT
Sequence of CAMK2A (human) (Q9UQM7 whole entry, looked up): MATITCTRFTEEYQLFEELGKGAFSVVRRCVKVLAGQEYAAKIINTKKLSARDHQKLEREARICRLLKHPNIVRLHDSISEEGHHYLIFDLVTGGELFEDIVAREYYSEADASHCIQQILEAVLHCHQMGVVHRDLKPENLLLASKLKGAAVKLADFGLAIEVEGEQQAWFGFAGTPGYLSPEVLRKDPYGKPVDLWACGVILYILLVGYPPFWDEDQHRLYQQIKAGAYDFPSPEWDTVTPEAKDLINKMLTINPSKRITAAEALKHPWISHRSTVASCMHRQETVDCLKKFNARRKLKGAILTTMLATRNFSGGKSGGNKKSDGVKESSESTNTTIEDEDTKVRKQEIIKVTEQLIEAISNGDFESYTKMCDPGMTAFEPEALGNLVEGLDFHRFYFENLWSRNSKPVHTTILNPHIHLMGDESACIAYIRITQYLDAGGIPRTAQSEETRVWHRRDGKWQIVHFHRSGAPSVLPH
Sequence of CSK (human) (P41240 whole entry, looked up): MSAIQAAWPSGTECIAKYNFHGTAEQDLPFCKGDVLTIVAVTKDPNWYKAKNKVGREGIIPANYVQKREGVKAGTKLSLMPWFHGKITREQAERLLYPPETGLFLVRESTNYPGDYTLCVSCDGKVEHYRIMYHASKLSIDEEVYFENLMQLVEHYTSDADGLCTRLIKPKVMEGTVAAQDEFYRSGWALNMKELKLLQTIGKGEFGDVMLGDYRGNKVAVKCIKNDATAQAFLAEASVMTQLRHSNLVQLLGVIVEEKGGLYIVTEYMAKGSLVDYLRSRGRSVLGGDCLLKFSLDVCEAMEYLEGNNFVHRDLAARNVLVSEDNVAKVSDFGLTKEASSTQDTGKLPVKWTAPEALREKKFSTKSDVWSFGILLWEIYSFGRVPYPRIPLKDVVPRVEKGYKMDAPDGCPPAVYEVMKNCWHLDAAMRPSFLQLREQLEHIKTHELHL
Sequence of SRPK1 (human) (Q96SB4 whole entry, looked up): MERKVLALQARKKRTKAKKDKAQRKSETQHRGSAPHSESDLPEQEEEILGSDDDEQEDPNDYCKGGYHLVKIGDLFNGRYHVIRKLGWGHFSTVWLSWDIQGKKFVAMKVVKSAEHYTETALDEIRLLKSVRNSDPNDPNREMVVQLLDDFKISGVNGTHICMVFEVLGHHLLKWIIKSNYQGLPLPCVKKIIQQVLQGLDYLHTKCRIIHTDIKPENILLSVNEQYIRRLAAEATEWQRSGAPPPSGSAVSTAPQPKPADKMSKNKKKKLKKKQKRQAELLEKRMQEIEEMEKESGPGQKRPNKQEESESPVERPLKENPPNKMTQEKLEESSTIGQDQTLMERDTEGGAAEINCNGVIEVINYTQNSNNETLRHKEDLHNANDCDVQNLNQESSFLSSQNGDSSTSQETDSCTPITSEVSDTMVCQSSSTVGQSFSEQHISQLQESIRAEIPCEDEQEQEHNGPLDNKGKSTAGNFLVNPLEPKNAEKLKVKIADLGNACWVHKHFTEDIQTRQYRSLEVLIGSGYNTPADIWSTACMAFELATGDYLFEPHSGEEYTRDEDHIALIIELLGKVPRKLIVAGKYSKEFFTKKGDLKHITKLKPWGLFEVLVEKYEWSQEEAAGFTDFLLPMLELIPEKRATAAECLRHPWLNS
Sequence of CAMK1G (human) (Q96NX5 whole entry, looked up): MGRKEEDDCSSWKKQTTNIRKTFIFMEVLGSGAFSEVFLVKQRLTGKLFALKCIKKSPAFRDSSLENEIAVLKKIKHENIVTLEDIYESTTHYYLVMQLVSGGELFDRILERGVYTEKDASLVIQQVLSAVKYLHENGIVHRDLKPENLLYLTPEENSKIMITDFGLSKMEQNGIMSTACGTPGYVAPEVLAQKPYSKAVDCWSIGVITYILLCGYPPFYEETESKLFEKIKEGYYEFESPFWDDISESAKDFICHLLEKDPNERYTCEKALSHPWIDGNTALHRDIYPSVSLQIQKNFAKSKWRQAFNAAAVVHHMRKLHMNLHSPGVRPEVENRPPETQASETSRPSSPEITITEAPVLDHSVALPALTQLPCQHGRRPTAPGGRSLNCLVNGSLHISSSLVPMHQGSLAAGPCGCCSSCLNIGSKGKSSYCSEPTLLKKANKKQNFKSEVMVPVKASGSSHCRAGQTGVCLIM
Sequence of MAPK9 (human) (P45984 whole entry, looked up): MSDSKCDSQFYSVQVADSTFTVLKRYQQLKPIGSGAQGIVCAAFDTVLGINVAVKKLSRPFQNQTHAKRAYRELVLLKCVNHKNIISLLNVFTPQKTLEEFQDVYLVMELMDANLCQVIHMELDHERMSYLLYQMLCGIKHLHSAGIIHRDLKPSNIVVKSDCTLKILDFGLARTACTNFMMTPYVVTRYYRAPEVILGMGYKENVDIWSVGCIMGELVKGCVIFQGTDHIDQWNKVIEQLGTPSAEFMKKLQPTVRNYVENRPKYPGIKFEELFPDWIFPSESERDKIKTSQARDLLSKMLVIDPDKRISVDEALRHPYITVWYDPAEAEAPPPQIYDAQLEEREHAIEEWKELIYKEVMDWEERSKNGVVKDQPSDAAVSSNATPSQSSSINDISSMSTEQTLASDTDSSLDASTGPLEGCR

In the case of `O=C1NC(=S)S/C1=C\c1ccc(-c2cncc3ccccc23)o1`, the kinase still bound, per cent of control was found to be 13% at LTK (human); 11% on PAK7 (human); 33% at CSK (human); 34% on CAMK1G (human); 20% at MAPK9 (human); 30% on CDC42BPB (human). In addition, the kinase still bound, per cent of control on CAMK2A (human) was determined as 22%.

Consider `CS(=O)(=O)Nc1ccc(-c2cc(/C=C3\SC(=N)NC3=O)c[nH]c2=O)cc1`, for which the figures for the kinase still bound, per cent of control at PKN2 (human) and at PRKCD (human) were 15% and 34%, respectively.

`CN1CCN(c2ccc(C(=O)Nc3ncc4c(n3)N(C)c3ccccc3C(=O)N4C)cc2)CC1`: the kinase still bound, per cent of control was 100% on FES (human); 100% at WEE1 (human); 100% on IKBKB (human); 86% on LTK (human); 100% at PRKG1 (human); 85% on ABL1 (human). The kinase still bound, per cent of control (at ADCK3 (human); on PAK7 (human); on SRPK1 (human); at ABL2 (human); on MAP4K5 (human); in [1]) was 100% in each case. The kinase still bound, per cent of control on MAP4K1 (human) stood at 98%; at CSK (human), 100%; at DDR1 (human) it was 100%; at FGFR1 (human), 100%; at SLK (human), 100%; on ULK1 (human) it was 78%. Also, the kinase still bound, per cent of control on CAMK1G (human) stood at 100%; in assay [2] it was 100%; at STK32B (human) it was 100%; on PKN2 (human), 78%; at EPHB1 (human), 100%; in [3], 96%. The kinase still bound, per cent of control on RPS6KA6 KD1 (human) is 100%; on PRKCE (human), 100%; at PRKCD (human), 100%; at MAPK13 (human) it was 90%; on PAK3 (human) it was 79%; on MAPK9 (human) it was 100%. For the same compound, the kinase still bound, per cent of control turned out to be 100% at BMX (human); 98% at CDC42BPB (human); 100% at RPS6KA3 KD1 (human); 100% at MUSK (human); 82% at NTRK1 (human); 100% at CAMK2A (human). Also, the kinase still bound, per cent of control on CAMK4 (human) is 100%; on AKT3 (human) it was 90%; at PTK2B (human), 100%; at EPHA4 (human), 97%; at NUAK2 (human), 100%; at CDKL2 (human), 100%.

`CS(=O)(=O)Nc1ccc(-c2ncc(/C=C3\SC(=N)NC3=O)s2)cc1`: the kinase still bound, per cent of control was 27% at ABL1 (human), 1.4% on SLK (human) and 33% at ULK1 (human).

Consider `N=C1NC(=O)/C(=C/c2ccc(-c3ccc(C(N)=O)cc3O)o2)S1`, for which the kinase still bound, per cent of control on PKN2 (human) is 31%; on CAMK2A (human), 28%.

For `Nc1cccc(-c2cc(/C=C3\SC(=O)NC3=O)c[nH]c2=O)c1`, the kinase still bound, per cent of control in [2] was 29%.

In the case of `N=C1NC(=O)/C(=C/c2ccc(-c3ccc(F)cc3O)o2)S1`, the kinase still bound, per cent of control at SRPK1 (human) came out at 25%.

For `CS(=O)(=O)Nc1ccc(-c2cncc(/C=C3\SC(=N)NC3=O)c2)cc1`, the kinase still bound, per cent of control on ABL1 (human) turned out to be 34%; on SRPK1 (human), 11%; on MAP4K5 (human), 12%; at SLK (human), 2.8%.

`N=C1NC(=O)/C(=C/c2ccc(-c3cncc4ccccc34)o2)S1`: the kinase still bound, per cent of control at IKBKB (human) stood at 26%; on PAK7 (human) it was 13%; on SRPK1 (human) it was 15%; on CSK (human), 12%; at CAMK1G (human), 18%; on PKN2 (human), 32%. Besides, the kinase still bound, per cent of control on MAPK9 (human) was found to be 14%; at CAMK2A (human) it was 10%.

Regarding `CN1C(=O)[C@H]2CCC[C@H]2N(C2CCCC2)c2nc(Nc3ccc(C(N)=O)cc3)ncc21`, the results for the kinase still bound, per cent of control at SLK (human) and at RPS6KA6 KD1 (human) were 3.4% and 30%, respectively.

Consider `CSC1=NC(=O)/C(=C/c2c[nH]c(=O)c(-c3ccc(NS(C)(=O)=O)cc3)c2)S1`, for which the figures for the kinase still bound, per cent of control on IKBKB (human), at ULK1 (human) and at NUAK2 (human) were 25%, 23% and 32%, respectively.

For `N=C1NC(=O)/C(=C/c2c[nH]c(=O)c(-c3ccc(N4CCNCC4)nc3)c2)S1`, the kinase still bound, per cent of control at ULK1 (human) stood at 33%; on NUAK2 (human), 26%.

On to `N=C1NC(=O)/C(=C/c2ccc(-c3csc4ccccc34)o2)S1`, for which the kinase still bound, per cent of control on DDR1 (human) is 33%; on CDC42BPB (human), 32%; at CAMK4 (human), 25%.
